# Data reported in US10065948B2, “Histone deacetylase inhibitors and compositions and methods of use thereof” (CHDI Foundation, Inc., priority 2014, dated 2018).
# How the values were obtained:
# [1] = target: Histone Deacetylase 4 (HDAC4) catalytic domain (Homo sapiens (Human), UniProt P56524); experiment: Biochemical HDAC inhibition assay, fluorogenic substrate Boc-Lys(Tfa)-AMC
# In short: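 Human HDAC4 catalytic domain (aa 648-1032, C-terminal His6) at 0.2 μg/mL working solution was tested against a 16-point compound dilution series in Tris buffer pH 8.0 for 15 min at 37 °C. Substrate Boc-Lys(Tfa)-AMC was prepared at 50 μM (5×). The reaction was stopped with trypsin plus reference inhibitor for 1 h at 37 °C, and AMC fluorescence was read at Ex 355/Em 460 nm.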
# [2] = system: cellular histone deacetylase enzymatic activity in Jurkat E6-1 cells; experiment: Inhibition of cellular HDAC activity, Boc-Lys(Tfa)-AMC substrate (Cell Lys-TFA); format: cell-based; conditions: Homo sapiens, Jurkat E6.1, Lys-TFA substrate
# In short: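 Jurkat E6-1 cells (75,000/well) were treated with a 16-point compound dilution for 2 h at 37 °C, then exposed to Boc-Lys(Tfa)-AMC for 3 h. Lysis buffer containing trypsin was added overnight (15-16 h), and AMC fluorescence was read at Ex 355/Em 460 nm.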
# [3] = system: cellular histone deacetylase activity (Lys-Ac); experiment: Inhibition of cellular HDAC activity (Cell Lys-Ac); format: cell-based; conditions: Lys-Ac substrate
# Chain of Histone Deacetylase 4 (HDAC4) catalytic domain (P56524 648-1032): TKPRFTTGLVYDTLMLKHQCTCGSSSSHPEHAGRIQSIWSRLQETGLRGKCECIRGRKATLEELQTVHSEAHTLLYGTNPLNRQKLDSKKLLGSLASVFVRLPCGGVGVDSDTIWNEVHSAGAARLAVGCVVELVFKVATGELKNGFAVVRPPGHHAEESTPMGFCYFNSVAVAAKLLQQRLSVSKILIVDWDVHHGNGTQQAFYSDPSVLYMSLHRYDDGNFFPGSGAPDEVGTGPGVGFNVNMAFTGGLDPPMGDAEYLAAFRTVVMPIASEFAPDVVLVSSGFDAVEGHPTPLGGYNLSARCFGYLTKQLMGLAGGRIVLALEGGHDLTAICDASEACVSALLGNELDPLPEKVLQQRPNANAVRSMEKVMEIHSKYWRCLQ
SMILES,IC50 [1] [nM],IC50 [2] [nM],IC50 [3] [nM]
"Cc1c(F)cccc1[C@]1(C(=O)NO)Cc2cnn(C3CC3)c2C1 [Example 58, (S)-1-Cyclopropyl-5-(3-fluoro-2-methylphenyl)-N-hydroxy-1,4,5,6-tetrahydrocyclopenta[c]pyrazole-5-carboxamide]",48,125,> 50000
"Cc1c(F)cccc1[C@]1(C(=O)NO)CCc2c1cnn2C1CC1 [Example 59, (R)-1-cyclopropyl-4-(3-fluoro-2-methylphenyl)-N-hydroxy-1,4,5,6-tetrahydrocyclopenta[c]pyrazole-4-carboxamide]",100,720,> 50000
"Cc1c(F)cccc1C1(C(=O)NO)Cc2nc(Cc3cccc(C(F)(F)F)c3)sc2C1 (stereo not drawn) [Example 63, 5-(3-Fluoro-2-methylphenyl)-N-hydroxy-2-(3-(trifluoromethyl)benzyl)-5,6-dihydro-4H-cyclopenta[d]thiazole-5-carboxamide]",490,38,> 50000
"Cc1c(F)cccc1[C@]1(C(=O)NO)Cc2nc(-c3ccnn3C)sc2C1 [Example 68, (S)-5-(3-Fluoro-2-methylphenyl)-N-hydroxy-2-(1-methyl-1H-pyrazol-5-yl)-5,6-dihydro-4H-cyclopenta[d]thiazole-5-carboxamide]",240,120,> 50000
"Cc1c(F)cccc1[C@@]1(C(=O)NO)Cc2nc(-c3ccnn3C)sc2C1 [Example 69, (R)-5-(3-Fluoro-2-methylphenyl)-N-hydroxy-2-(1-methyl-1H-pyrazol-5-yl)-5,6-dihydro-4H-cyclopenta[d]thiazole-5-carboxamide]",44,35,> 50000
"Cc1cc(-c2nc3c(s2)C[C@@](C(=O)NO)(c2cccc(F)c2C)C3)n(C)n1 [Example 70, (R)-2-(1,3-Dimethyl-1H-pyrazol-5-yl)-5-(3-fluoro-2-methylphenyl)-N-hydroxy-5,6-dihydro-4H-cyclopenta[d]thiazole-5-carboxamide]",122,79,> 50000
"COc1ccc(-c2nc3c(s2)C[C@@](C(=O)NO)(c2cccc(F)c2C)C3)nc1 [Example 71, (R)-5-(3-Fluoro-2-methylphenyl)-N-hydroxy-2-(5-methoxypyridin-2-yl)-5,6-dihydro-4H-cyclopenta[d]thiazole-5-carboxamide]",95,56,> 50000
"Cc1ccccc1-c1nc2c(s1)[C@](C(=O)NO)(c1cccc(F)c1C)CC2 [Example 73, (S)-6-(3-Fluoro-2-methylphenyl)-N-hydroxy-2-(o-tolyl)-5,6-dihydro-4H-cyclopenta[d]thiazole-6-carboxamide]",143,630,> 50000
"Cc1c(F)cccc1[C@]1(C(=O)NO)CCc2nc(-c3ccc(F)cc3)sc21 [Example 78, (S)-6-(3-Fluoro-2-methylphenyl)-2-(4-fluorophenyl)-N-hydroxy-5,6-dihydro-4H-cyclopenta[d]thiazole-6-carboxamide]",120,500,> 50000
"Cc1c(F)cccc1[C@]1(C(=O)NO)Cc2nn(C)c(-c3ccc(F)cc3)c2C1 [Example 79, (R)-5-(3-Fluoro-2-methylphenyl)-3-(4-fluorophenyl)-N-hydroxy-2-methyl-2,4,5,6-tetrahydrocyclopenta[c]pyrazole-5-carboxamide]",53,26,36500
"Cc1c(F)cccc1C1(C(=O)NO)Cc2ccccc2C1 [Example 82, 2-(3-Fluoro-2-methylphenyl)-N-hydroxy-2,3-dihydro-1H-indene-2-carboxamide]",110,1800,> 50000
"Cc1c(F)cccc1C1(C(=O)NO)CCc2cnc(C3CC3)nc2CC1 (stereo not drawn) [Example 83, 2-Cyclopropyl-7-(3-fluoro-2-methylphenyl)-N-hydroxy-6,7,8,9-tetrahydro-5H-cyclohepta[d]pyrimidine-7-carboxamide]",1300,490,> 50000
"O=C(NO)C1(c2ccccc2)CCc2cn(CC(F)(F)F)nc2CC1 (stereo not drawn) [Example 86, N-Hydroxy-6-phenyl-2-(2,2,2-trifluoroethyl)-2,4,5,6,7,8-hexahydrocyclohepta[c]pyrazole-6-carboxamide]",8200,46700,> 50000
"Cc1cc(C)nc(-n2cc3c(n2)C[C@](C(=O)NO)(c2cccc(F)c2C)C3)n1 [Example 91, (S)-2-(4,6-Dimethylpyrimidin-2-yl)-5-(3-fluoro-2-methylphenyl)-N-hydroxy-2,4,5,6-tetrahydrocyclopenta[c]pyrazole-5-carboxamide]",280,460,> 50000
"Cc1c(F)cccc1[C@]1(C(=O)NO)Cc2cnn(Cc3ccccc3)c2C1 [Example 92, (S)-1-Benzyl-5-(3-fluoro-2-methylphenyl)-N-hydroxy-1,4,5,6-tetrahydrocyclopenta[c]pyrazole-5-carboxamide]",48,27,> 50000
"Cc1c(F)cccc1[C@]1(C(=O)NO)CCc2c1cnn2Cc1ccccc1 [Example 93, (R)-1-benzyl-4-(3-fluoro-2-methylphenyl)-N-hydroxy-1,4,5,6-tetrahydrocyclopenta[c]pyrazole-4-carboxamide]",27,170,> 50000
"Cc1c(F)cccc1[C@]1(C(=O)NO)CCc2nn(Cc3ccccc3)cc21 [Example 94, (R)-2-Benzyl-4-(3-fluoro-2-methylphenyl)-N-hydroxy-2,4,5,6-tetrahydrocyclopenta[c]pyrazole-4-carboxamide]",820,2780,> 50000
"Cc1c(F)cccc1[C@]1(C(=O)NO)CCc2nn(Cc3ccccc3F)cc21 [Example 95, (R)-4-(3-fluoro-2-methylphenyl)-2-(2-fluorobenzyl)-N-hydroxy-2,4,5,6-tetrahydrocyclopenta[c]pyrazole-4-carboxamide]",710,2980,> 50000
"Cc1c(F)cccc1[C@@]1(C(=O)NO)Cc2nc(-c3ccc(F)cn3)sc2C1 [Example 96, (R)-5-(3-Fluoro-2-methylphenyl)-N-hydroxy-2-(5-fluoropyridin-2-yl)-5,6-dihydro-4H-cyclopenta[d]thiazole-5-carboxamide]",51,60,> 50000
